Measured values: ChEMBL document CHEMBL1201862, “PubChem BioAssay data set” (2004)
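Five compound concentrations were applied to cells in 96-well plates for 48 hours; endpoints were derived by simple linear interpolation of the resulting dose-response curve. GI50: concentration for 50% inhibition of growth.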 Activity calls are given as the source filed them. Cut-off read from the data, not from the text of the source: active = GI50 up to about 1.1 µM and inactive = higher.

Tests used:
Test in all cases: growth of human tumour cells (NCI), 48 h
[1] = system: SF-268
[2] = system: TK-10
[3] = system: T47D
[4] = system: OVCAR-8
[5] = system: SK-MEL-28
[6] = system: UACC-257
[7] = system: HCC 2998
[8] = system: UACC-62
[9] = system: OVCAR-5
[10] = system: CAKI-1
[11] = system: HL-60
[12] = system: HT-29
[13] = system: UO-31
[14] = system: MDA-N
[15] = system: SK-OV-3
[16] = system: HOP-92
[17] = system: SK-MEL-5
[18] = system: HOP-62
[19] = system: LOX IMVI
[20] = system: NCI-H23
[21] = system: SF-539
[22] = system: HCT-116
[23] = system: MOLT-4
[24] = system: SR
[25] = system: MCF7
[26] = system: IGROV-1
[27] = system: NCI-H460
[28] = system: SNB-19
[29] = system: M14
[30] = system: NCI/ADR-RES
[31] = system: A498
[32] = system: SN12C
[33] = system: Malme-3M
[34] = system: A549
[35] = system: SNB-75
[36] = system: U-251
[37] = system: SW-620
[38] = system: OVCAR-3
[39] = system: ACHN
[40] = system: Hs-578T
[41] = system: OVCAR-4
[42] = system: CCRF-CEM
[43] = system: K562
[44] = system: MDA-MB-231
[45] = system: NCI-H522
[46] = system: 786-0
[47] = system: RXF 393
[48] = system: SK-MEL-2
[49] = system: COLO 205
[50] = system: EKVX
[51] = system: DU-145
[52] = system: RPMI-8226
[53] = system: NCI-H226
[54] = system: SF-295
[55] = system: MDA-MB-435
[56] = system: PC-3
[57] = system: BT-549
[58] = system: KM12
[59] = system: HCT-15

c1ccc(CNCCCNCCCCNCCCNCc2ccccc2)cc1 was tested, and the GI50 [1] was 12.2 µM (inactive), the GI50 [2] was 5.69 µM (inactive) and the GI50 [3] was 10.8 µM (inactive). The GI50 [4] was 12.8 µM (inactive), the GI50 [5] was 12.1 µM (inactive) and the GI50 [6] was 15 µM (inactive). The GI50 [7] was 5.66 µM (inactive), the GI50 [8] was 6.59 µM (inactive) and the GI50 [9] was 5.22 µM (inactive). For the same compound, the GI50 [10] was 10.3 µM (inactive), the GI50 [11] was 0.656 µM (active) and the GI50 [12] was 1.92 µM (inactive). The GI50 [13] was 12.2 µM (inactive), the GI50 [14] was 1.83 µM (inactive) and the GI50 [15] was 15.7 µM (inactive). For the same compound, the GI50 [16] was 1.42 µM (inactive), the GI50 [17] was 7.85 µM (inactive) and the GI50 [18] was 4.15 µM (inactive). For the same compound, the GI50 [19] was 3.15 µM (inactive), the GI50 [20] was 2.38 µM (inactive) and the GI50 [21] was 1.76 µM (inactive). For the same compound, the GI50 [22] was 2.94 µM (inactive), the GI50 [23] was 0.834 µM (active) and the GI50 [24] was 3.39 µM (inactive). The GI50 [25] was 3.21 µM (inactive), the GI50 [26] was 1.93 µM (inactive) and the GI50 [27] was 6.27 µM (inactive). The GI50 [28] was 13.2 µM (inactive), the GI50 [29] was 5.46 µM (inactive) and the GI50 [30] was 38.7 µM (inactive). The GI50 [31] was > 10 µM (inactive), the GI50 [32] was 3.72 µM (inactive) and the GI50 [33] was 2.02 µM (inactive). The GI50 [34] was 14.4 µM (inactive), the GI50 [35] was 8.91 µM (inactive) and the GI50 [36] was 7.87 µM (inactive). For the same compound, the GI50 [37] was 1.8 µM (inactive), the GI50 [38] was 11.9 µM (inactive) and the GI50 [39] was 6.05 µM (inactive). The GI50 [40] was 1.91 µM (inactive), the GI50 [41] was 13.8 µM (inactive) and the GI50 [42] was 1.86 µM (inactive). For the same compound, the GI50 [43] was 1.67 µM (inactive), the GI50 [44] was 6.5 µM (inactive) and the GI50 [45] was 1.57 µM (inactive). The GI50 [46] was 1.5 µM (inactive), the GI50 [47] was 12.4 µM (inactive) and the GI50 [48] was 14.7 µM (inactive). The GI50 [49] was 1.82 µM (inactive), the GI50 [50] was 9.42 µM (inactive) and the GI50 [51] was 12.8 µM (inactive). The GI50 [52] was 2.22 µM (inactive), the GI50 [53] was 4.68 µM (inactive) and the GI50 [54] was 15.1 µM (inactive). The GI50 [55] was 4.22 µM (inactive), the GI50 [56] was 4.88 µM (inactive) and the GI50 [57] was 16.7 µM (inactive). The GI50 [58] was 5.52 µM (inactive) and the GI50 [59] was 15.8 µM.
